Laboratory results: US12275725B2, “Inhibitors of the notch transcriptional activation complex and methods for use of the same” (University of Miami, priority 2019, dated 2025)
≈ marks a conversion by molar mass, not a printed value. Like-named read-outs stand apart in the source and are kept apart here. Values belong to the compound of their own block, whether it stands above or below them.

Key:
[1] = Aqueous solubility in SGF, FaSSIF and PBS
[2] = target: T1, Notch transcriptional activation complex (NTC) (Homo sapiens, UniProt P46531+Q06330); assay: Notch complex assembly assay (NTC AlphaScreen assay); type: binding
T1 construct: made in house; host or cells: SF21 insect cells (baculovirus)
Method: Notch Complex Assembly Assay
All recombinant proteins were expressed using baculovirus expression vectors in SF21 cells and purified. Unless otherwise stated, all assays contained 125 fmol of double stranded oligonucleotide, CSL, Notch1 and MAML1 proteins. Reactions were carried out in Tris-buffered saline with 0.1% Tween (“TBS-T”) buffer containing 0.2% bovine serum albumin (“BSA”) and 100 μg/mL salmon sperm DNA. Briefly, the Notch complex was assembled on a biotinylated double stranded (“DS”) oligonucleotide harboring one CSL binding site (5′-[…]-3′). Complex assembly was quantitated using ALPHASCREEN technology (Perkin Elmer). Proteins in the complexes were detected using specific antibodies to either MAML1 (Cell signaling, D3K7B), Notch1 (Abcam, 52627) or CSL (anti-His, Abcam 18184). Streptavidin conjugated […] beads (Perkin Elmer, 6760002) were used to bind the DS oligonucleotide, and Protein-A conjugated […] beads (Perkin Elmer, 6760137) were used to detect antibody-coated proteins. For screening compounds, Notch transcriptional activation complex (“NTC”) components were added to wells that already contained the inhibitor to be assayed and allowed to incubate for 30 minutes. The ALPHASCREEN plate (Perkin Elmer, 6008350) was then read on an Envision Plate reader (Perkin Elmer) as specified by the manufacturer.

[3] = GSH ethyl ester conjugation / parent remaining in human liver microsomes; type: in vitro ADME; settings: for Percentage (%) Parent Remaining in HLM: reacted with GSH
[4] = Pharmacokinetic study in mouse plasma; type: in vivo; settings: for Cmax: read-out: *C0/Cmax
Method: Pharmacokinetic studies were performed as previously described (Astudillo et al. (2016) Cancer Res). The following treatments were administered: NADi-260 via intraperitoneal (i.p.) route at 100 mg/kg, NADI-260 via intravenous route (i.v.) at 2 mg/kg, NADi-351 via i.p. at 10 mg/kg, NADi-351 via […] at 10 mg/kg and NADi-351 via oral route (PO) at 50 mg/kg. Blood samples were collected from each treatment group and their respective control grounds, plasma was separated from blood immediately by centrifugation at 4000 rpm for 10 min at 4° C. and stored below −70° C. until bioanalysis. All samples were processed for analysis by protein precipitation using acetonitrile and analyzed by fit for purpose LC-MS/MS method. Pharmacokinetic parameters were calculated using the non-compartmental analysis module of Phoenix WinNonlin (Version 6.3). Histological Analysis of Mouse Intestine Tissue

OE 33 cell line = assay: Cell viability, MTT, OE33 cell line; type: cell-based, human; settings: for IC50: Homo sapiens, OE33, 72 h treatment
Source text: OE33 cells, human esophageal adenocarcinoma cell lines, were obtained from the European Collection of Cell Culture. SUM-149 and SUM-159, breast cancer cell lines, were obtained from Dr. Joyce Slingerland at the University of Miami School of Medicine. The following cell lines were obtained directly from the ATCC: 786-0, a human renal cell adenocarcinoma cell line; HT-1080, a human fibrosarcoma cell line; MCF-7, a mammary gland adenocarcinoma; T47D, a human mammary ductal carcinoma cell line; and H-23 a non-small cell lung adenocarcinoma cell line. All cell lines were propagated in growth media as specified.

[5] = Metabolism to acid form in mouse hepatocytes; type: in vitro ADME; settings: to SSTN-258
[6] = Metabolism to acid form in liver microsomes; type: in vitro ADME; settings: to SSTN-258
[7] = pH 1.2, simulated gastric fluid
[8] = Table C, NTC AlphaScreen assay, read-out: *IC50
[9] = ip, NADi-260 i.p. 100 mg/kg, mouse plasma
[10] = iv, NADi-260 i.v. 2 mg/kg, mouse plasma, back extrapolated, initial three time points only
[11] = iv, NADi-260 i.v. 2 mg/kg, mouse plasma, initial three time points only
[12] = Table E, NTC AlphaScreen assay, read-out: *IC50
[13] = Table B, read-out: IC50 (μM) NTC

T1 sequence (P46531 1754-2555 limits assumed): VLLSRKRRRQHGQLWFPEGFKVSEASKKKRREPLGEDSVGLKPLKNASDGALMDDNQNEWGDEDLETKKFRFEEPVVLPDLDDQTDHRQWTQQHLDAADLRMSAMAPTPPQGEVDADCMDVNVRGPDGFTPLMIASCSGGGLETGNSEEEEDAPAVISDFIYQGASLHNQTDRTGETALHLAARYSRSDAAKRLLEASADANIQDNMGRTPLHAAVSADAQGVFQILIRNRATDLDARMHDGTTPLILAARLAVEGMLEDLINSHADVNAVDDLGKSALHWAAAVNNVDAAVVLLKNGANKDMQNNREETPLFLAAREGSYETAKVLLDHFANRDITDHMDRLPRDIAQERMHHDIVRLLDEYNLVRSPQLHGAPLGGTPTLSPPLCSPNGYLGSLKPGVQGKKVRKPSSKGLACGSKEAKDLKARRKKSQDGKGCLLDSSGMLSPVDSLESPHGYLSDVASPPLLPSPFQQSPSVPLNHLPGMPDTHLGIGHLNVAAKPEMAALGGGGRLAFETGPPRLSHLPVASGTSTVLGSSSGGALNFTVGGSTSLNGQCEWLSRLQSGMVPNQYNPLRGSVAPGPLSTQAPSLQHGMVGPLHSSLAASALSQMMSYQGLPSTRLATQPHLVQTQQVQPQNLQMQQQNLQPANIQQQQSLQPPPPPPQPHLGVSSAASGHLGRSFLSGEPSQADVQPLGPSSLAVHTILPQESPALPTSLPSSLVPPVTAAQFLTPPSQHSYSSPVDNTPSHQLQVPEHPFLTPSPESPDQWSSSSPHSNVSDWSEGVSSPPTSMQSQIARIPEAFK
T1 sequence (Q06330 whole entry): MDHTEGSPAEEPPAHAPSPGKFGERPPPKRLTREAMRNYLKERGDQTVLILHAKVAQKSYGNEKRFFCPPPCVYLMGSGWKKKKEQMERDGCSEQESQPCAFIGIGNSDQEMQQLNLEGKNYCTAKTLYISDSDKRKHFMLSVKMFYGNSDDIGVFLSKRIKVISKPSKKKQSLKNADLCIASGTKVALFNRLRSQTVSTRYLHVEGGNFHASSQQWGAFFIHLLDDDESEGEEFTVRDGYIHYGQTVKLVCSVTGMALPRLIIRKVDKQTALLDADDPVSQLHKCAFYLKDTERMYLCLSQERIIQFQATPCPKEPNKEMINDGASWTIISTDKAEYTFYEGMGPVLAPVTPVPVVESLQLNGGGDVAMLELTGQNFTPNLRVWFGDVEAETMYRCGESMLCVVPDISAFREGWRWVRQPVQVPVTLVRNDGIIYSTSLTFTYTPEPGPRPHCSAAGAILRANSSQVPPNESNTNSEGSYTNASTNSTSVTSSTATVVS

SMILES: O=C(O)CCCc1ccc(N(CCCl)CCCl)cc1 [Chlorambucil, chlorambucil]
- solubility [1, 7]: 70.4 ± 2.6 µM (≈ 21.4 µg/mL)
- solubility ([1]; pH 6.5, fassif): 68.9 ± 1.9 µM (≈ 21 µg/mL)

SMILES: CC/C(=C(/CC)c1ccc(O)cc1)c1ccc(O)cc1 [DES, diethylstilbestrol, reference compound]
- solubility (physchem; pH 7.4, aqueous buffer): < 5 µM

SMILES: CCN(CC)C(=O)COc1c(F)cc(/C=C2\SC(=S)N(CC(=O)N(C)C)C2=O)cc1OC [NADi-244]
- IC50 [2, 8]: 2.9 µM

SMILES: COc1cc(/C=C2\SC(=S)N(CC(=O)N(C)C)C2=O)cc(F)c1OCc1ncco1 [NADi-248]
- *IC50 (μM) ([2]; Table C, NTC AlphaScreen assay): Inactive

SMILES: COc1cc(/C=C2\SC(=S)N(CC(=O)N(C)C)C2=O)cc(F)c1OCc1ncc(C)o1 [NADi-249]
- *IC50 (μM) ([2]; Table C, NTC AlphaScreen assay): Inactive

SMILES: COc1cc(/C=C2\SC(=S)N(CC(=O)N(C)C)C2=O)cc(F)c1OCc1nc(C)c(C)o1 [NADi-251]
- *IC50 (μM) ([2]; Table C, NTC AlphaScreen assay): Inactive

SMILES: CCc1coc(COc2c(F)cc(/C=C3\SC(=S)N(CC(=O)N(C)C)C3=O)cc2OC)n1 [NADi-253]
- IC50 [2, 8]: 0.3 µM

SMILES: COc1cc(/C=C2\SC(=S)N(CC(=O)N(C)C)C2=O)cc(F)c1OCc1nnc(C)o1 [NADi-255]
- *IC50 (μM) ([2]; Table C, NTC AlphaScreen assay): Inactive

SMILES: CCc1nnc(COc2c(F)cc(/C=C3\SC(=S)N(CC(=O)N(C)C)C3=O)cc2OC)o1 [NADi-256]
- *IC50 (μM) ([2]; Table C, NTC AlphaScreen assay): Inactive

SMILES: COc1cc(/C=C2\SC(=S)N(CC(=O)N(C)C)C2=O)cc(F)c1OCc1nc(C)no1 [NADi-258]
- *IC50 (μM) ([2]; Table C, NTC AlphaScreen assay): Inactive

SMILES: CCc1noc(COc2c(F)cc(/C=C3\SC(=S)N(CC(=O)N(C)C)C3=O)cc2OC)n1 [NADi-259]
- *IC50 (μM) ([2]; Table C, NTC AlphaScreen assay): Inactive

SMILES: COc1cc(/C=C2\SC(=S)N(CC(=O)N(C)C)C2=O)cc(F)c1OCc1nc[nH]n1 [NADi-260, (Z)-2-(5-(4-((1H-1,2,4-triazol-3-yl)methoxy)-3-fluoro-5-methoxybenzylidene)-4-oxo-2-thioxothiazolidin-3-yl)-N,N-dimethylacetamide]
- Percentage (%) Parent Remaining in HLM ([3]; incubation time 0 min): 100%
- Percentage (%) Parent Remaining in HLM ([3]; incubation time 60 min): 46%
- GSH ethyl ester conjugation in HLM ([3]; within 60 minutes of incubation): showed GSH ethyl ester conjugation
- AUC(0-inf) [4, 9]: 5420 ng·h/mL
- AUC(0-t) [4, 9]: 5320 ng·h/mL
- Tmax [4, 9]: 4.8 min
- Cmax [4, 9]: 5700 ng/mL
- Cmax [4, 10]: 837 ng/mL
- clearance ([4]; iv, NADi-260 i.v. 2 mg/kg, mouse plasma, cell says NR, value in footnote): 429 mL/min/kg
- AUC(0-inf) [4, 11]: 78 ng·h/mL
- AUC(0-t) [4, 11]: 77 ng·h/mL
- half-life [4, 11]: 4.8 min
- Vd ([4]; iv, NADi-260 i.v. 2 mg/kg, mouse plasma, read-out: Vss): 1.79 L/kg
- IC50 [2, 8]: 0.02 µM
- IC50 [2, 12]: 0.02 µM

SMILES: COc1cc(/C=C2\SC(=S)N(CC(=O)N(C)C)C2=O)cc(F)c1OCc1nnc(C)[nH]1 [NADi-261]
- IC50 [2, 8]: 0.62 µM

SMILES: CCc1nnc(COc2c(F)cc(/C=C3\SC(=S)N(CC(=O)N(C)C)C3=O)cc2OC)[nH]1 [NADi-262]
- IC50 [2, 8]: 0.08 µM

SMILES: COc1ccc2[nH]c([S+]([O-])Cc3ncc(C)c(OC)c3C)nc2c1 (centres unmarked) [Omeprazole, omeprazole, reference compound]
- solubility (physchem; [7]): < 5 µM
- solubility (physchem; pH 6.5, fassif): 174 ± 5.4 µM (≈ 60 µg/mL)

Now from value to compound, other results behind:

- plasma level of metabolite ([4]; after NADi-260 i.v. 2 mg/kg, mouse plasma): BQL
- AUC(0-t) [4, 9]: 21 ng·h/mL
- Tmax [4, 9]: 15 min
- Cmax [4, 9]: 41 ng/mL
SMILES: COc1cc(/C=C2\SC(=S)N(CC(=O)N(C)C)C2=O)cc(F)c1O [PM6]

- AUC(0-inf) [4, 9]: 19100 ng·h/mL
- AUC(0-t) [4, 9]: 18800 ng·h/mL
- Tmax [4, 9]: 15 min
- Cmax [4, 9]: 8520 ng/mL
- Cmax [4, 10]: 3480 ng/mL
- AUC(0-inf) [4, 11]: 310 ng·h/mL
- AUC(0-t) [4, 11]: 308 ng·h/mL
SMILES: COc1cc(CC2SC(=S)N(CC(=O)N(C)C)C2=O)cc(F)c1OCc1nnc[nH]1 (centres unmarked) [PM7]

- IC50 [2, 13]: 5.1 µM
SMILES: CCOC(=O)COc1ccc(F)cc1/C=C1\SC(=S)N(CC(=O)N(C)C)C1=O [SSTN-251]
- IC50 (OE 33 cell line): 12.8 µM

- time to metabolize to acid form [5]: ≤ 15 min
- time to metabolize to acid form [6]: ≤ 15 min
- metabolism in mouse plasma ([4]; pharmacokinetic study of SSTN-253, FIG. 1C): metabolizes to its acid form (SSTN-258)
- IC50 [2, 13]: 0.058 µM
- IC50 [2, 8]: 0.06 µM
- IC50 [2, 12]: 0.06 µM
SMILES: CCOC(=O)COc1c(F)cc(/C=C2\SC(=S)N(CC(=O)N(C)C)C2=O)cc1OC [SSTN-253]
- IC50 (OE 33 cell line): 9.3 µM

- IC50 [2, 13]: 4.4 µM
SMILES: COc1cc(/C=C2\SC(=S)N(CC(=O)N(C)C)C2=O)ccc1OCC(=O)O [SSTN-254]
- IC50 (OE 33 cell line): > 25 µM

- inhibition of NTC assembly ([2]; FIG. 1B): did not inhibit
- IC50 (μM) NTC ([2]; Table B): Inactive
SMILES: COc1cc(/C=C2\SC(=S)N(CC(=O)N(C)C)C2=O)cc(F)c1OCC(=O)O [SSTN-258]
- Cell viability (MTT, μM, 72 h treatment OE 33 cell line) (OE 33 cell line): No effect
